For data set [1] the following is noted: 101 kPa, Liquid; for viscosity: Capillary tube (Ostwald / Ubbelohde) method; for mass density: Pycnometric method.
A short description of data set [2]: xn = mol fraction of the nth substance listed. The conditions noted are these: 101 kPa, Liquid, x1 = 1; for viscosity: Capillary tube (Ostwald / Ubbelohde) method; for mass density: Pycnometric method.

The values that follow come from the NIST ThermoML archive (doi:10.1021/je0601255).

Numbers after ± are expanded uncertainties.

One may read the viscosity as the internal friction of a fluid under shear. As a reminder, the mass density is mass per unit of volume. On to `C=C(C)C(=O)OCCO` [2-hydroxyethyl 2-methyl-2-propenoate], for which the viscosity in data set [1] (288.15 K) is 8.234 ± 0.19 mPa·s; in data set [1] (298.15 K), 5.784 ± 0.13 mPa·s; in data set [1] (308.15 K), 4.194 ± 0.096 mPa·s; in data set [1] (318.15 K) it was 3.181 ± 0.073 mPa·s. Besides, the mass density came out at 1074.7 ± 2.4 kg/m3 in data set [1] (288.15 K), 1067.1 ± 2.4 kg/m3 in data set [1] (298.15 K), 1057.7 ± 2.4 kg/m3 in data set [1] (308.15 K) and 1048.6 ± 2.4 kg/m3 in data set [1] (318.15 K).
Take `C=C(C)C(=O)O` [2-methyl-2-propenoic acid]: the viscosity in data set [1] (288.15 K) came out at 1.447 ± 0.031 mPa·s; in data set [1] (298.15 K), 1.267 ± 0.027 mPa·s; in data set [1] (308.15 K), 1.078 ± 0.023 mPa·s; in data set [1] (318.15 K) it was 0.945 ± 0.02 mPa·s. In addition, the mass density came out at 1018.3 ± 2.1 kg/m3 in data set [1] (288.15 K), 1009.5 ± 2.1 kg/m3 in data set [1] (298.15 K), 999.4 ± 2.1 kg/m3 in data set [1] (308.15 K) and 989.2 ± 2.1 kg/m3 in data set [1] (318.15 K).
With `C=C(C)C(=O)OCc1ccccc1` [benzyl methacrylate], the viscosity in data set [1] (288.15 K) came out at 2.871 ± 0.066 mPa·s; in data set [1] (298.15 K) it was 2.302 ± 0.053 mPa·s; in data set [1] (308.15 K), 1.885 ± 0.043 mPa·s; in data set [1] (318.15 K) it was 1.58 ± 0.036 mPa·s. Besides, the mass density in data set [1] (288.15 K) is reported as 1041.2 ± 2.4 kg/m3; in data set [1] (298.15 K), 1034.7 ± 2.3 kg/m3; in data set [1] (308.15 K), 1025.8 ± 2.3 kg/m3; in data set [1] (318.15 K), 1017 ± 2.3 kg/m3.
Take `CCCCO` [butan-1-ol]: the viscosity in data set [1] (288.15 K) came to 3.286 ± 0.07 mPa·s; in data set [1] (298.15 K), 2.566 ± 0.055 mPa·s; in data set [1] (308.15 K) it was 1.998 ± 0.043 mPa·s; in data set [1] (318.15 K), 1.55 ± 0.033 mPa·s. Moreover, the mass density in data set [1] (288.15 K) is on record as 812.3 ± 1.7 kg/m3; in data set [1] (298.15 K) it was 805.6 ± 1.7 kg/m3; in data set [1] (308.15 K) it was 798 ± 1.7 kg/m3; in data set [1] (318.15 K), 790.5 ± 1.6 kg/m3.
With `CCCCO` [butan-1-ol] + C=C(C)C(=O)O, the viscosity in data set [2] (288.15 K) amounted to 3.286 ± 0.07 mPa·s; in data set [2] (298.15 K), 2.566 ± 0.055 mPa·s; in data set [2] (308.15 K), 1.998 ± 0.043 mPa·s; in data set [2] (318.15 K), 1.55 ± 0.033 mPa·s. The mass density in data set [2] (288.15 K) amounted to 812.3 ± 1.7 kg/m3; in data set [2] (298.15 K), 805.6 ± 1.7 kg/m3; in data set [2] (308.15 K), 798 ± 1.7 kg/m3; in data set [2] (318.15 K), 790.5 ± 1.6 kg/m3.
As for `CCCCO` [butan-1-ol] + C=C(C)C(=O)OCCO, the viscosity in data set [2] (288.15 K) came to 3.286 ± 0.07 mPa·s; in data set [2] (298.15 K), 2.566 ± 0.055 mPa·s; in data set [2] (308.15 K), 1.998 ± 0.043 mPa·s; in data set [2] (318.15 K), 1.55 ± 0.033 mPa·s. Further, the mass density in data set [2] (288.15 K) is 812.3 ± 1.7 kg/m3; in data set [2] (298.15 K), 805.6 ± 1.7 kg/m3; in data set [2] (308.15 K), 798 ± 1.7 kg/m3; in data set [2] (318.15 K) it was 790.5 ± 1.6 kg/m3.
With `CCCCO` [butan-1-ol] + C=C(C)C(=O)OCc1ccccc1, the viscosity amounted to 3.286 ± 0.07 mPa·s in data set [2] (288.15 K), 2.566 ± 0.055 mPa·s in data set [2] (298.15 K), 1.998 ± 0.043 mPa·s in data set [2] (308.15 K) and 1.55 ± 0.033 mPa·s in data set [2] (318.15 K). In addition, the mass density in data set [2] (288.15 K) turned out to be 812.3 ± 1.7 kg/m3; in data set [2] (298.15 K) it was 805.6 ± 1.7 kg/m3; in data set [2] (308.15 K), 798 ± 1.7 kg/m3; in data set [2] (318.15 K) it was 790.5 ± 1.6 kg/m3.
